Assay results: ChEMBL document CHEMBL4340579, “HPLC-DAD-Directed Isolation of Linearly Fused Prenylated Indole Alkaloids from a Soil-Derived Aspergillus versicolor” (J Nat Prod, 2019); call rule not given here

Legend:
HeLa = experiment: Cytotoxicity in human HeLa cells assessed as reduction in cell viability incubated for 3 days by MTT assay; type: functional, cell-based
HepG2 = experiment: Cytotoxicity in human HepG2 cells assessed as reduction in cell viability incubated for 3 days by MTT assay; type: functional, cell-based
NCM460 = experiment: Cytotoxicity in human NCM460 cells assessed as reduction in cell viability incubated for 3 days by MTT assay; type: cell-based
A549 = experiment: Cytotoxicity in human A549 cells assessed as reduction in cell viability incubated for 3 days by MTT assay; type: functional, cell-based
MCF7 = experiment: Cytotoxicity in human MCF7 cells assessed as reduction in cell viability incubated for 3 days by MTT assay; type: functional, cell-based
[1] = Homo sapiens, HeLa, 72 h, read-out: IC50

Q: `C=CC(C)(C)[C@]1(CC2(O)NC(=O)C3CCCN3C2=O)C(=O)Nc2cc3c(cc21)C=CC(C)(C)O3` (stereo not given in full) was tested. Which IC50 (HeLa; hela) did it give?
A: Not Active

Q: And the IC50 (HepG2; hepg2)?
A: Not Active

Q: What about the IC50 (NCM460; ncm460) of the same molecule?
A: Non-Toxic

Q: What about the IC50 (A549; a549) of the same molecule?
A: Not Active

Q: What about the IC50 (MCF7; mcf7) of the same molecule?
A: Not Active

Q: What does the source list for `C=CC(C)(C)[C@@]12Nc3cc4c(cc3[C@]1(O)C[C@H]1C(=O)N3CCC[C@H]3C(=O)N12)C=CC(C)(C)O4`?
A: IC50 (HeLa; hela): Not Active; IC50 (HepG2; hepg2): Not Active; IC50 (NCM460; ncm460): Non-Toxic; IC50 (A549; a549): Not Active; IC50 (MCF7; mcf7): Not Active

Q: With `C=CC(C)(C)[C@@]12Nc3cc4c(cc3[C@]1(O)C[C@]1(O)C(=O)N3CCC[C@H]3C(=O)N21)C=CC(C)(C)O4` as the molecule, how does the IC50 (HeLa; hela) read?
A: Not Active

Q: What about the IC50 (HepG2; hepg2) of the same molecule?
A: Not Active

Q: And the IC50 (NCM460; ncm460)?
A: Non-Toxic

Q: And the IC50 (A549; a549)?
A: Not Active

Q: What about the IC50 (MCF7; mcf7) of the same molecule?
A: Not Active

Q: How did the IC50 (HeLa; [1]) turn out when `C=CC(C)(C)c1[nH]c2cc3c(cc2c1C=O)C=CC(C)(C)O3` was run?
A: 6400 nM

Q: And the IC50 (HepG2; hepg2)?
A: Not Active

Q: What about the IC50 (NCM460; ncm460) of the same molecule?
A: Non-Toxic

Q: And the IC50 (A549; a549)?
A: Not Active

Q: And the IC50 (MCF7; mcf7)?
A: Not Active

Q: `C=CC(C)(C)[C@@]12Nc3cc4c(cc3[C@]1(O)C[C@]1(NC(=O)[C@H]3CCCN3C1=O)O2)C=CC(C)(C)O4` was tested. Which IC50 (HeLa; [1]) did it give?
A: 7300 nM

Q: What about the IC50 (HepG2; hepg2) of the same molecule?
A: Not Active

Q: What about the IC50 (NCM460; ncm460) of the same molecule?
A: Non-Toxic

Q: And the IC50 (A549; a549)?
A: Not Active

Q: What about the IC50 (MCF7; mcf7) of the same molecule?
A: Not Active

Q: Which IC50 (HeLa; hela) does the source give for `C=CC(C)(C)[C@]1(CC2NC(=O)C3(O)CCCN3C2=O)C(=O)Nc2cc3c(cc21)C=CC(C)(C)O3` (stereo not given in full) here?
A: Not Active

Q: What about the IC50 (HepG2; hepg2) of the same molecule?
A: Not Active

Q: And the IC50 (NCM460; ncm460)?
A: Non-Toxic

Q: What about the IC50 (A549; a549) of the same molecule?
A: Not Active

Q: What about the IC50 (MCF7; mcf7) of the same molecule?
A: Not Active

Q: Which results are given for `C=CC(C)(C)[C@]1(C[C@@H]2NC(=O)[C@@H]3CCCN3C2=O)C(=O)Nc2cc3c(cc21)C=CC(C)(C)O3`?
A: IC50 (HeLa; hela): Not Active; IC50 (HepG2; hepg2): Not Active; IC50 (NCM460; ncm460): Non-Toxic; IC50 (A549; a549): Not Active; IC50 (MCF7; mcf7): Not Active

Q: Which IC50 (HeLa; hela) does the source give for `C=CC(C)(C)[C@]1(C[C@]2(OC)NC(=O)[C@@H]3CCCN3C2=O)C(=O)Nc2cc3c(cc21)C=CC(C)(C)O3` here?
A: Not Active

Q: And the IC50 (HepG2; hepg2)?
A: Not Active

Q: And the IC50 (NCM460; ncm460)?
A: Non-Toxic

Q: What about the IC50 (A549; a549) of the same molecule?
A: Not Active

Q: What about the IC50 (MCF7; mcf7) of the same molecule?
A: Not Active

Q: What does the source list for `C=CC(C)(C)[C@@]1(C[C@@H]2NC(=O)[C@@H]3CCCN3C2=O)C(=O)Nc2cc3c(cc21)C=CC(C)(C)O3`?
A: IC50 (HeLa; hela): Not Active; IC50 (HepG2; hepg2): Not Active; IC50 (NCM460; ncm460): Non-Toxic; IC50 (A549; a549): Not Active; IC50 (MCF7; mcf7): Not Active

Q: Which IC50 (HeLa; [1]) does the source give for `CC(=O)O[C@H]1C(=O)[C@@]2(C)[C@H]([C@H](OC(=O)c3ccccc3)[C@]3(O)C[C@H](OC(=O)[C@H](O)[C@@H](NC(=O)c4ccccc4)c4ccccc4)C(C)=C1C3(C)C)[C@]1(OC(C)=O)CO[C@@H]1C[C@@H]2O` [PACLITAXEL] here?
A: < 8 nM

Q: And the IC50 (HepG2; Homo sapiens, HepG2, 72 h, read-out: IC50)?
A: < 8 nM

Q: And the IC50 (NCM460; Homo sapiens, NCM460, 72 h, read-out: IC50)?
A: < 8 nM

Q: What about the IC50 (A549; Homo sapiens, A549, 72 h, read-out: IC50) of the same molecule?
A: < 8 nM

Q: And the IC50 (MCF7; Homo sapiens, MCF7, 72 h, read-out: IC50)?
A: < 8 nM
